Columns and labels:
Type in all cases: cell-based, human
Conditions in all cases: 10 μM
[1] = system: SNB-19; test: NCI-60 screen, CNS Cancer
Procedure: (§1) Several compounds were tested at single concentrations (10 μM) against 59 different human tumor cell lines, representing leukemia, melanoma and cancers of the lung, colon, brain, ovary, breast, prostate, and kidney (see, Table 3). The human tumor cell lines of the cancer screening panel were grown in RPMI 1640 medium containing 5% fetal bovine serum and 2 mM L-glutamine. For a typical screening experiment, cells were inoculated into 96 well microtiter plates in 100 μL at plating densities ranging from 5,000 to 40,000 cells/well depending on the doubling time of individual cell lines. After cell inoculation, the microtiter plates were incubated at 37° C., 5% CO2, 95% air and 100% relative humidity for 24 hours prior to addition of the compounds.
(§2) After 24 hours, two plates of each cell line were fixed in situ with TCA, to represent a measurement of the cell population for each cell line at the time of drug addition (Tz). Compounds were solubilized in dimethyl sulfoxide at 400-fold the desired final maximum test concentration and stored frozen prior to use. At the time of drug addition, an aliquot of frozen concentrate was thawed and diluted to twice the desired final maximum test concentration with complete medium containing 50 μg/ml gentamicin. Additional four, 10-fold or ½ log serial dilutions were made to provide a total of five compound concentrations plus control. Aliquots of 100 μl of these different drug dilutions were added to the appropriate microtiter wells already containing 100 μl of medium, resulting in the required final compound concentrations.
(§3) Following drug addition, the plates were incubated for an additional 48 hours at 37° C., 5% CO2, 95% air, and 100% relative humidity. For adherent cells, the assay was terminated by the addition of cold TCA. Cells were fixed in situ by the gentle addition of 50 μl of cold 50% (w/v) TCA (final concentration, 10% TCA) and incubated for 60 minutes at 4° C. The supernatant was discarded, and the plates were washed five times with tap water and air dried. Sulforhodamine B (SRB) solution (100 μl) at 0.4% (w/v) in 1% acetic acid was added to each well, and plates were incubated for 10 minutes at room temperature. After staining, unbound dye was removed by washing five times with 1% acetic acid and the plates were air dried. Bound stain was subsequently solubilized with 10 mM trizma base, and the absorbance was read on an automated plate reader at a wavelength of 515 nm. For suspension cells, the methodology was the same except that the assay was terminated by fixing settled cells at the bottom of the wells by gently adding 50 μl of 80% TCA (final concentration, 16% TCA). Using the seven absorbance measurements (time zero, (Tz), control growth, (C), and test growth in the presence of drug at the five concentration levels (Ti)), the percentage growth was calculated at each of the compound concentrations levels. Percentage growth inhibition was calculated as:
(§4) [(Ti−Tz)/(C−Tz)]×100 for concentrations for which Ti>/=Tz
(§5) [(Ti−Tz)/Tz]×100 for concentrations for which Ti<Tz.
(§6) Three dose response parameters were calculated for each compound. Growth inhibition of 50% (GI50) was calculated from [(Ti−Tz)/(C−Tz)]×100=50, which is the compound concentration resulting in a 50% reduction in the net protein increase (as measured by SRB staining) in control cells during the compound incubation. The compound concentration resulting in total growth inhibition (TGI) was calculated from Ti=Tz. The LC50 (concentration of compound resulting in a 50% reduction in the measured protein at the end of the compound treatment as compared to that at the beginning) indicating a net loss of cells following treatment was calculated from [(Ti−Tz)/Tz]×100=−50. Values were calculated for each of these three parameters if the level of activity was reached; however, if the effect was not reached or was exceeded, the value for that parameter was expressed as greater or less than the maximum or minimum concentration tested.

[2] = system: U251; test: NCI-60 screen, CNS Cancer
Procedure: as §1, §2, §3, §4, §5, §6

[3] = system: SF-268; test: NCI-60 screen, CNS Cancer
Procedure: as §1, §2, §3, §4, §5, §6

[4] = system: SF-295; test: NCI-60 screen, CNS Cancer
Procedure: as §1, §2, §3, §4, §5, §6

[5] = system: SNB-75; test: NCI-60 screen, CNS Cancer
Procedure: as §1, §2, §3, §4, §5, §6

[6] = system: SF-539; test: NCI-60 screen, CNS Cancer
Procedure: as §1, §2, §3, §4, §5, §6

[7] = system: A498; test: NCI-60 screen, Renal Cancer
Procedure: as §1, §2, §3, §4, §5, §6

[8] = system: SN12C; test: NCI-60 screen, Renal Cancer
Procedure: as §1, §2, §3, §4, §5, §6

[9] = system: CAKI-1; test: NCI-60 screen, Renal Cancer
Procedure: as §1, §2, §3, §4, §5, §6

[10] = system: UO-31; test: NCI-60 screen, Renal Cancer
Procedure: as §1, §2, §3, §4, §5, §6

[11] = system: TK-10; test: NCI-60 screen, Renal Cancer
Procedure: as §1, §2, §3, §4, §5, §6

[12] = system: ACHN; test: NCI-60 screen, Renal Cancer
Procedure: as §1, §2, §3, §4, §5, §6

[13] = system: RXF 393; test: NCI-60 screen, Renal Cancer
Procedure: as §1, §2, §3, §4, §5, §6

[14] = system: COLO 205; test: NCI-60 screen, Colon Cancer
Procedure: as §1, §2, §3, §4, §5, §6

[15] = system: HCT-15; test: NCI-60 screen, Colon Cancer
Procedure: as §1, §2, §3, §4, §5, §6

[16] = system: KM12; test: NCI-60 screen, Colon Cancer
Procedure: as §1, §2, §3, §4, §5, §6

[17] = system: HT29; test: NCI-60 screen, Colon Cancer
Procedure: as §1, §2, §3, §4, §5, §6

[18] = system: HCT-116; test: NCI-60 screen, Colon Cancer
Procedure: as §1, §2, §3, §4, §5, §6

[19] = system: HCC-2998; test: NCI-60 screen, Colon Cancer
Procedure: as §1, §2, §3, §4, §5, §6

[20] = system: SW-620; test: NCI-60 screen, Colon Cancer
Procedure: as §1, §2, §3, §4, §5, §6

[21] = system: DU-145; test: NCI-60 screen, Prostate Cancer
Procedure: as §1, §2, §3, §4, §5, §6

[22] = system: PC-3; test: NCI-60 screen, Prostate Cancer
Procedure: as §1, §2, §3, §4, §5, §6

[23] = system: MOLT-4; test: NCI-60 screen, Leukemia
Procedure: as §1, §2, §3, §4, §5, §6

[24] = system: K-562; test: NCI-60 screen, Leukemia
Procedure: as §1, §2, §3, §4, §5, §6

[25] = system: HL-60(TB); test: NCI-60 screen, Leukemia
Procedure: as §1, §2, §3, §4, §5, §6

[26] = system: SR; test: NCI-60 screen, Leukemia
Procedure: as §1, §2, §3, §4, §5, §6

[27] = system: CCRF-CEM; test: NCI-60 screen, Leukemia
Procedure: as §1, §2, §3, §4, §5, §6

Structure (SMILES)	Percent Growth [1]	Percent Growth [2]	Percent Growth [3]	Percent Growth [4]	Percent Growth [5]	Percent Growth [6]	Percent Growth [7]	Percent Growth [8]	Percent Growth [9]	Percent Growth [10]	Percent Growth [11]	Percent Growth [12]	Percent Growth [13]	Percent Growth [14]	Percent Growth [15]	Percent Growth [16]	Percent Growth [17]	Percent Growth [18]	Percent Growth [19]	Percent Growth [20]	further results
NCCCc1cccc(-c2ccc3sc4ccc(-c5cccc(CCCN)c5)cc4c3c2)c1 [Compound D]	79.89%	59.7%	73.4%	87.17%	71.15%	98.34%	81.64%	84.45%	82.82%	85.61%	86.48%	68.97%	81.71%	31.52%	88.15%	42.09%	21.31%	0.5127%	93.27%	15.48%	Percent Growth [21]: 55.35%; Percent Growth [22]: 73.6%; Percent Growth [23]: 2.072%; Percent Growth [24]: 12.99%; Percent Growth [25]: 68.33%; Percent Growth [26]: 0%; Percent Growth [27]: 5.12%
c1cc(-c2ccc3sc4ccc(-c5ccnc(N6CCNCC6)c5)cc4c3c2)cc(N2CCNCC2)n1 [Compound E]	−43.97%	−85.72%	−37.05%	−50.65%	−94.79%	14.26%	75.11%	−16.99%	−13.76%	−41.12%	−52.46%	−69.18%	−70.65%	−59.52%	−54.01%	−87.84%	−87.5%	−48.52%	−9.443%	−87.3%	Percent Growth [21]: −97.96%; Percent Growth [22]: −85.11%; Percent Growth [23]: −75.28%; Percent Growth [24]: −70.89%; Percent Growth [25]: −24.59%; Percent Growth [26]: −60.7%; Percent Growth [27]: −64.03%
NCCSc1cc(SCCN)c(C(F)(F)F)cc1NC(=O)c1cc(C(=O)Nc2cc(C(F)(F)F)c(SCCN)cc2SCCN)ncn1 [Compound F]	49.54%	23.67%	32.42%	57.66%	−20.24%	65.73%	69.6%	57.46%	31.42%	48.74%	21.48%	20.02%	47.68%	126%	62.31%	7.63%	56.34%	32.41%	31.93%	18.57%	Percent Growth [21]: 51.97%; Percent Growth [22]: 46.61%; Percent Growth [23]: 82.85%; Percent Growth [24]: 96.34%; Percent Growth [25]: 82.57%; Percent Growth [26]: 51.7%; Percent Growth [27]: 99.09%

Reference: patent publication US20120115877A1, “Facially Amphiphilic Compounds, Compositions, And Uses Thereof In Treating Cancer” (POLYMEDIX, INC., priority 2010, published 2012)
